{"source": "patent US20240424019A1", "about": "“SHP1 MODIFIED DENDRITIC CELLS AND EXTRACELLULAR VESICLES DERIVED THEREFROM AND ASSOCIATED METHODS” (BOARD OF REGENTS, THE UNIVERSITY OF TEXAS SYSTEM, priority 2021, published 2024)", "key": {"cancer patients": {"system": "cancer patients", "assay": "Retrospective analysis of electronic health records of cancer patients receiving ICT (anti-PD-1/PD-L1)", "assay_type": "in vivo, human", "from_the_text": "FIG. 1A: Percentages of deceased cancer patients taking dietary nutritional supplements during ICT treatment (Anti-PD-1/PDL1: Pembrolizumab/Atezolizumab) (n=7,667 including 1,888 breast cancer patients, 2,715 melanoma patients, and 3,064 prostate cancer patients). Each bar represents a group of patients who took one type of nutritional supplement along with ICT (Red dashed line indicated the median percentage of deceased cancer patients in this study). […] FIGS. 1C-1D: Tumor growth curves of orthotopic EMT6 TNBC tumor-bearing Balb/c mice (FIG. 1C, n=5) and orthotopic B16-GMCSF melanoma tumor-bearing C57BL/6 mice (FIG. 1D, left, n=5) treated with vehicle, 50 mg/kg of Vitamin E (VitE), […] anti-PDI (ICT), or Vitamin E+anti-PD1 (VitE+ICT) (n=5). Flow cytometry quantification of Granzyme B^+CD8^+ T cells in tumor tissues at 20 days post-implantation (FIG. 1D. right, n=5). FIG. 1E: Tumor growth curves of orthotopic B16-F10 melanoma tumor-bearing C57BL/6 mice with the indicated treatments (n=5). FIG. 1F: Tumor growth curves of orthotopic B16-FLT3L melanoma tumor-bearing C57BL/6 mice with the indicated treatments (n=5). […]\nWe retrospectively analyzed electronic health records for the clinical outcomes of cancer patients receiving ICT immunotherapies (anti-PD-1/PD-L1). […]"}, "H-2Kb-SIINFEKL": {"system": "H-2Kb-SIINFEKL", "assay": "Antigen cross-presentation: H-2Kb-SIINFEKL on OVA-loaded DCs by flow cytometry", "assay_type": "cell-based, mouse", "from_the_text": "FIG. 4A: Flow cytometric analysis and quantification of H-2Kb-SIINFEKL in OVA-loaded sgCtrl or sgPtpn6-DC2.4 cells without or with TCM treatment (n=3). FIG. 4B: FCM analysis and quantification of H-2K^b-SIINFEKL in the vehicle or VitE-treated BMDCs with or without TCM treatment (n=5). Error bars, s.e.m. ns, no significant. *P<0.05, **P<0.01. ***P<0.001. ****P<0.0001.\nThe most critical function of DCs is the cross-presentation of tumor antigens to T-cells (Guermonprez et al., 2002). We assessed the membrane MHC-I complexes that were loaded with intracellularly processed OVA-derived peptide (H-2Kb-SIINFEKL) on OVA-loaded DCs with VitE-treatment. […] Therefore, VitE administration enhances the activation and antigen cross-presentation function of DCs to provoke antigen-specific antitumor T-cell immunity. We quantified H-2Kb-SIINFEKL in the vehicle-or VitE-treated sgCtrl-DC2.4 or sgPtpn6-DC2.4 (n=3). […] Thus. SHP1 inhibition in DCs by VitE treatment or Ptpn6 knockout enhances antigen cross-presentation that boosts CD8+ T-cell antitumor immunity."}, "4T1 tumors": {"system": "4T1 tumors", "assay": "Orthotopic 4T1 TNBC tumor model", "assay_type": "in vivo, mouse", "experimental": "FIG. 6A: Diagram of the experimental paradigm (top) and tumor growth curves (bottom) of orthotopic B16-GMCSF tumor in mice vaccinated with or without GVAX (s.c. at day 1, 4, 7), then treated with vehicle or VitE (50 mg/kg/day daily by oral gavage administration from day 4 to day 20) (n=6/group). FIG. 6B: Tumor weight of 4T1 tumors from mice treated with vehicle. GVAX, ICT (200 μg/mouse anti-PDI and 100 μg/mouse anti-CTLA4 by i.p. at day 7, 10, 13), or GVAX+ICT in combination with vehicle or VitE (50 mg/kg/day daily by oral gavage administration from day 4 to day 25) (n=4) at day 25 after tumor inoculation. FIG. 6C: Flow cytometric analysis (left) and quantification (right) of gp70 tetramer+CD8^+ T cells in 4T1 tumors at day 14 post-implantation with indicated treatments (n=5/group). FIG. 6D: Kaplan-Meier survival curve of 4T1 tumor-bearing mice treated with vehicle, low dosage of Doxorubicin (Dox, 5 mg/kg by i.v.). ICT (200 μg/mouse anti-PD1 and 100 μg/mouse anti-CTLA4 by i.p. at day 7, 10, 13). or Dox+ICT along with vehicle or VitE (n=10). FIG. 6E: Measurement of maximal tumor diameter in HY1936 KPC tumor-bearing mice treated with gemcitabine (GEM, 25 mg/kg by i.p.) and ICT (anti-PDI/anti-CTLA4) along with vehicle or VitE (n=5). FIG. 6F: Kaplan-Meier survival curve of HY19636 KPC tumor-bearing mice treated with vehicle, GEM (gemcitabine, 25 mg/kg by i.p.), GEM+ICT (anti-PDI/anti-CTLA4) plus vehicle or VitE (n=6). Error bars, s.e.m. ns, no significant. *P<0.05. ***P<0.001, ****P<0.0001.\nSyngeneic orthotopic PDAC tumors were established by surgical implantation.\nControl groups received vehicle (PBS) without the active product.\nWhere indicated, mice were vaccinated subcutaneously on their contralateral flank with either PBS or 1.0×10^6 35 Gy-irradiated GM-CSF-secreting B16 cells or GM-CSF-secreting 4T1 cells (GVAX) on days 1, 4, and 7 post-tumor injections.\nFor chemo combination treatment, HY19636 KPC tumor-bearing mice were treated with gemcitabine (GEM) at 25 mg/kg body weight by i.p. injection once a week from day 7 and 4T1 TNBC tumor-bearing mice were given with doxorubicin (Dox, 5 mg/kg body weight) by i.v. once a week from day 10. The chemotherapeutic doses and schedules used in this study are below or within the range of the concentrations used in the clinic after converting drug doses between species."}, "RAB34": {"system": "RAB34", "assay": "Immunoblot of Rab34 proteins in BMDCs", "assay_type": "cell-based, mouse", "settings": "VitE vs vehicle, 48 hr"}, "[1]": {"settings": "doxorubicin+ICT+VitE vs doxorubicin+ICT"}}, "data": [{"smiles": "Cc1c(C)c2c(c(C)c1O)CC[C@@](C)(CCC[C@H](C)CCC[C@H](C)CCCC(C)C)O2", "note": "[VitE, D-α-Tocopherol]", "values": [{"measurement": "survival rate of cancer patients", "setting": "cancer patients; VitE during anti-PD-1/PD-L1 treatment vs any of 14 other dietary or nutritional supplements", "result": "significantly improved survival rate"}, {"measurement": "Percentages of deceased cancer patients", "setting": "cancer patients; took VitE during anti-PD-1/PD-L1 treatment (n=83), patients who did not 21.2% (n=7,574), Fisher P 0.0027", "result": 8.4, "unit": "%"}, {"measurement": "H-2Kb-SIINFEKL molecules on sgPtpn6-DC2.4 cells", "setting": "H-2Kb-SIINFEKL; VitE treatment of SHP1-knockout cells", "result": "did not further increase H-2Kb-SIINFEKL molecules"}, {"measurement": "H-2Kb-SIINFEKL molecules on DC2.4 cells", "setting": "H-2Kb-SIINFEKL; vs vehicle-treated sgCtrl-DC2.4 cells", "result": "significantly increased H-2Kb-SIINFEKL molecules on DC2.4 cells"}, {"measurement": "antitumor effect (tumor weight)", "setting": "4T1 tumors; VitE 50 mg/kg/day combined with GVAX+ICT", "result": "significantly enhanced the antitumor effect"}, {"measurement": "gp70 tetramer-specific CD8+ T cells in tumor", "setting": "4T1 tumors; VitE added to doxorubicin+ICT", "result": "increased the infiltration of tumor-infiltrating gp70) tetramer-specific CD8^+ T cells"}, {"measurement": "survival", "setting": "4T1 tumors; [1]", "result": "substantially prolonged the survival"}, {"measurement": "tumor growth and lung metastasis", "setting": "4T1 tumors; [1]", "result": "inhibited tumor growth and lung metastasis"}, {"measurement": "RAB34 expression in BMDCs", "setting": "RAB34", "result": "increased total RAB34 expression"}]}]}
